Ends that are not written are not given here.
B1: HC gp-39 peptide 56 (residues printed as 352-377) (peptide)
peptide: WALDLDDFQGSFCGQD
notes: A 16-mer starting at 352 would end at 367, so this is probably a misprint

What was measured:
[1] = system: PBMC from RA patients and healthy controls carrying the DR4 (DRB1*0401) specificity; assay: Proliferative responses of blood mononuclear cells, RA patients and healthy donors taken together; format: cell-based, human; conditions: individual peptides; any donor
Description: (§1) In order to identify T-cell epitopes within HC gp-39, 59 peptides of 16 AA in length, overlapping by 10 AA were tested for their capacity to induce a proliferative response in PBMC from RA patients and healthy controls carrying the DR4 (DRB1*0401) specificity (Table 1).
(§2) PBMC obtained from heparinized venous peripheral blood were isolated by standard centrifugation on a Ficoll-Paque gradient. Cells were cultured in four-fold at a concentration of 1,5×10^5 cells/well in medium supplemented with 10% heat-inactivated, autologous plasma, L-glutamine, 2-ME and antibiotics in flatbottomed microtiter plates. Cells were incubated in medium alone or in the presence of phytohaemagglutinin (PHA) (2:5 μg/ml) to assert cell viability, or in the presence of 10 or 100 μg/ml of the HC gp-39-derived peptides. In several cases, sets of 2 or 3 sequential peptides were tested due to limited PBMC numbers of individual donors. Cultures were incubated in a total volume of 210 μl for 7 days at […] in a humidified atmosphere of 5% CO2. Cultures were pulsed during the last 18 hours with 0.25 μCi ^3H-thymidine ([^3H]TdR). Cells were harvested on glassfiber filters and [^3H] TdR incorporation was measured by gas scintillation (Packard Matrix 96 βcounter). Only peptides inducing a proliferative response at both 10 and 100 μg/ml were considered to contain a T-cell epitope. Responses were defined positive if stimulation index values (SI, antigen-specific counts per 5 min (cp5 m)/background cp5 m) exceeded or equaled 2.
(§3) T-cell reactivity to HC gp-39-derived peptide as analyzed by measuring the PBMC proliferative response in DR4 (DRB1*0401)-positive RA patients and healthy donors. Proliferative responses were tested in autologous plasma. In Table IIIA and IIIB the results of 7 experiments are presented showing the responses of RA patients (Table IIIA) and the responses of healthy donors (Table IIIB) to 59 overlapping sequences derived from HC gp-39.

[2] = molecular target: T1, DR4 (DRB1*0401) molecules (Homo sapiens, UniProt P01903+P01911, A100K/A169T/F76Y/I96L/K127E/L162R/M171V/N62H/P40V/Q125Y/R42H/S133A/S149N/S66Y/V115G/V209L/W38E); assay: Peptide HLA-DR binding assay (semi-quantitative competition binding); conditions: for IC50: Table IIIA, competition with biotinylated marker peptide HA 309 Y→F, pH5.0, 44 hr RT
T1 construct: molecules were purified from the homozygous EBV-transformed human B lymphoblastoid cell lines Huly138IC2 and BM92 using the mAb; endogenous in cells
Description: DR4 (DRB1*0401) and DR4 (DRB1*0404) molecules were purified from the homozygous EBV-transformed human B lymphoblastoid cell lines Huly138IC2 and BM92 using the mAb t243, directed against a monomorphic determinant on the DR-complex (Lampson, L. A and R. Levy (1980), J. Immunol. 125:293 299).
The peptide binding studies were performed using a semi-quantitative competition binding assay (Joosten et al 1994, Int. Immunol. 6, 751). Briefly, purified HLA-DR molecules (30 nM DR4(DRB1*0401) or 15 nM DR4 (DRB1*0404) were incubated at pH5.0 with 50 nM biotinylated marker peptide (HA 309y→F) and a concentration range of competitor peptide in a final volume of 25 μl binding buffer (PBS containing 0.01% […], 0.05% NP-40, 5% DMSO, 1 mM AEBSF, 1 mM N-ethyl maleimide, 8 mM EDTA and 10 μm pepstatin A). After 44 hr of incubation at RT, HLA DR bound marker peptide was separated from free marker peptide using a 96 well vacuum dotblot apparatus (Hybri. dot, BRL) and a nitrocellulose membrane (Hybond ECL, Amersham, UK). The nitrocellulose filters were blocked with 0.5% DNA blocking reagent (Boehringer) in 0.1 M maleic acid, 150 mM NaCl, pH7.5.
After 0.5-1 hr, the filters were washed in PBS, 0.05% Tween 20 (Sigma) and incubated with Strepcavidin-HRPO (Southern Biotechnology) in a 1:10.000 dilution. Biotinylated peptides were detected by enhanced chemiluminescence using a Western Blot ECL kit (Amersham). Exposure of the preflashed films (Hyperfilm-ECL, Amersham) was for 10 min. The spots were analysed by scanning the films and using Image Quant/Excel software for analysis.
The affinity of a given peptide for binding DRB1*0401-encoded molecules was related to competition with the marker peptide. This relative binding affinity was defined as the peptide concentration at which the signal was reduced to 50% (IC50).

[3] = system: PBMC from RA patients carrying the DR4 (DRB1*0401) specificity; assay: Peptide-induced proliferative responses of PBMC from RA patients; format: cell-based, human; conditions: for Peptide-induced proliferative response of PBMC, RA 272: RA patient 272, 0401, R; for Responses to peptides observed in RA patients only: compared with healthy donors; for Peptide-induced proliferative response of PBMC, RA 286: RA patient 286, 0401, R; for Peptide-induced proliferative response of PBMC, RA 259: RA patient 259, 0401, R; for Peptide-induced proliferative response of PBMC, RA 276: RA patient 276, 0401, R
Description: This study included 7 DR4(DRB1*0401)-positive patients diagnosed as suffering from RA according to the ARA criteria (Arnett et al., (1988), Arthritis Rheum. 31, 315). Peripheral blood samples were obtained with informed consent. There were five women and two men aged 46-79 years. Their duration of disease ranged from over 10 to over 30 years. Three out of 7 patients had at least 3 swollen joints. […] All patients were on medication: Four patients were treated with prednisone, three patients received anti-rheumatic agents and 4 patients were treated with NSAID's as well.
as §1, §2, §3

[4] = molecular target: T2, DR4 (DRB1*0401) molecules purified from the homozygous EBV-transformed human B lymphoblastoid cell line … (human, UniProt P01903 26-254); assay: competition binding assay on purified DR4(DRB1*0401)
T2 construct: mature; That form is inferred from purification of the native complex

[5] = 100 and 10 microgram/ml, 7 days, 3H-thymidine incorporation

| Molecule | Responses to the individual peptides (PBMC proliferation), identifying T-cell epitopes [1] | Relative affinity of binding to DR4 (DRB1*0401), in words [2] | IC50 [2] [µM] | Peptide-induced proliferative response of PBMC, RA 272 [3, 5] | Response of PBMC from RA patient 272 to individual peptides, in words [3] | Responses to peptides observed in RA patients only [3] | binding result [4] | also measured |
| --- | --- | --- | --- | --- | --- | --- | --- | --- |
| LAGAMVWALDLDDFQG [compound 55, LAGAMVWALDLDDFQG] | observed in one or more donors | relatively high affinity | < 1 | pos (positive responses to both 100 and 10 microgram/ml of peptide or sets of peptides (SI≧2 were regarded positive)) | appeared to respond | observed in RA patients only | – | – |
| MGIPTFGRSFTLASSE [compound 40, MGIPTFGRSFTLASSE] | observed in one or more donors | relatively high affinity | < 1 | pos (positive responses to both 100 and 10 microgram/ml of peptide or sets of peptides (SI≧2 were regarded positive)) | appeared to respond | observed in RA patients only | – | Peptide-induced proliferative response of PBMC, RA 286 [3, 5]: pos (positive responses to both 100 and 10 microgram/ml of peptide or sets of peptides (SI≧2 were regarded positive)) |
| MLRLGAPASKLVMGIP [compound 38, MLRLGAPASKLVMGIP] | observed in one or more donors | intermediate relative affinity | 10 to 100 | pos (positive responses to both 100 and 10 microgram/ml of peptide or sets of peptides (SI≧2 were regarded positive)) | appeared to respond | observed in RA patients only | – | Peptide-induced proliferative response of PBMC, RA 259 [3, 5]: pos (positive responses to both 100 and 10 microgram/ml of peptide or sets of peptides (SI≧2 were regarded positive)); Peptide-induced proliferative response of PBMC, RA 262 ([3]; RA patient 262, 0401, R, 100 and 10 microgram/ml, 7 days, 3H-thymidine incorporation): pos (positive responses to both 100 and 10 microgram/ml of peptide or sets of peptides (SI≧2 were regarded positive)); Peptide-induced proliferative response of PBMC, RA 276 [3, 5]: pos (positive responses to both 100 and 10 microgram/ml of peptide or sets of peptides (SI≧2 were regarded positive)); Peptide-induced proliferative response of PBMC, RA 286 [3, 5]: pos (positive responses to both 100 and 10 microgram/ml of peptide or sets of peptides (SI≧2 were regarded positive)) |
| SPLFRGQEDASPDRFS [compound 34, SPLFRGQEDASPDRFS] | observed in one or more donors | relatively high affinity | < 1 | pos (positive responses to both 100 and 10 microgram/ml of peptide or sets of peptides (SI≧2 were regarded positive)) | appeared to respond | observed in RA patients only | – | – |
| YTSWSQYREGDGSCFP [peptide 2, YTSWSQYREGDGSCFP] | observed in one or more donors | intermediate relative affinity | 10 to 100 | pos (positive responses to both 100 and 10 microgram/ml of peptide or sets of peptides (SI≧2 were regarded positive)) | appeared to respond | observed in RA patients only | – | Peptide-induced proliferative response of PBMC, RA 191 ([3]; RA patient 191, 0401, R, 100 and 10 microgram/ml, 7 days, 3H-thymidine incorporation): pos (positive responses to both 100 and 10 microgram/ml of peptide or sets of peptides (SI≧2 were regarded positive)); Peptide-induced proliferative response of PBMC, RA 259 [3, 5]: pos (positive responses to both 100 and 10 microgram/ml of peptide or sets of peptides (SI≧2 were regarded positive)); Peptide-induced proliferative response of PBMC, RA 276 [3, 5]: pos (positive responses to both 100 and 10 microgram/ml of peptide or sets of peptides (SI≧2 were regarded positive)); Peptide-induced proliferative response of PBMC, RA 286 [3, 5]: pos (positive responses to both 100 and 10 microgram/ml of peptide or sets of peptides (SI≧2 were regarded positive)) |
| RGATVHRTLGQQVPYA [HC gp-39 peptide 48 (residues 304-319)] | – | – | – | – | – | – | binds | – |
| EICDFLRGATVHRTLG [HC gp-39 peptide 47 (residues 298-313)] | – | – | – | – | – | – | binds | – |
| VKSKVQYLKDRQLAGA [HC gp-39 peptide 53 (residues 334-349)] | – | – | – | – | – | – | binds | – |
| B1 | – | – | – | – | – | – | binds | – |
| GTLAYYEICDFLRGAT [HC gp-39 peptide 46 (residues 292-307)] | – | – | – | – | – | – | binds | – |
| PASKLVMGIPTFGRSF [HC gp-39 peptide 39 (residues 250-265)] | – | – | – | – | – | – | binds | – |

Source: patent publication US6881824B1, “Peptides suitable for use in antigen specific immunosuppressive therapy” (Akzo Nobel N.V., priority 1996, dated 2005)
